US5280015A, “2-substituted adenosines and 2-substituted adenosine 5'-carboxamides” (priority 1990, dated 1994)
Several values for one entry are separate records, joined by “and”; a condition that tells them apart may be missing. Identical values can stand only once. Counter-ions that a name gives are not always drawn. Like-named read-outs stand apart in the source and are kept apart here.

Columns and labels:
A1-adenosine receptors = molecular target: T1, A1-adenosine receptors (Rattus norvegicus, UniProt P25099); experiment: Competitive binding assay at A1-adenosine receptors, rat cerebral cortex membranes ([3H]PIA or [3H]CHA)
T1 construct: rat cerebral cortex membranes; from tissue; host or cells: rat cerebral cortex membranes
T1 sequence (P25099 1-326): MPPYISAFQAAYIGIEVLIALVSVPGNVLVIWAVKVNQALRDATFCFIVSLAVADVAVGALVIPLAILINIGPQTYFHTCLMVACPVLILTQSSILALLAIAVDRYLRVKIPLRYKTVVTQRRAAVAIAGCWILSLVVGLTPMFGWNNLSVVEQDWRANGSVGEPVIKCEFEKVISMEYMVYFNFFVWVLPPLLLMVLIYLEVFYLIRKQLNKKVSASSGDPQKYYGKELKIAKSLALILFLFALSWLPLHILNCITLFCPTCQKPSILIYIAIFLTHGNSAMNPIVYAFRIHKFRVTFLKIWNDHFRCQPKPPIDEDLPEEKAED

A2 adenosine receptors = A2 adenosine receptors (Bos taurus, UniProt E1BKU0); experiment: Competitive binding assay in bovine brain using 125I-PAPA-APEC (striatal membranes); set-up: Bovine striatal membranes; from tissue; host or cells: bovine (calf) striatal membranes
A2 adenosine receptors, sequence (E1BKU0 1-401): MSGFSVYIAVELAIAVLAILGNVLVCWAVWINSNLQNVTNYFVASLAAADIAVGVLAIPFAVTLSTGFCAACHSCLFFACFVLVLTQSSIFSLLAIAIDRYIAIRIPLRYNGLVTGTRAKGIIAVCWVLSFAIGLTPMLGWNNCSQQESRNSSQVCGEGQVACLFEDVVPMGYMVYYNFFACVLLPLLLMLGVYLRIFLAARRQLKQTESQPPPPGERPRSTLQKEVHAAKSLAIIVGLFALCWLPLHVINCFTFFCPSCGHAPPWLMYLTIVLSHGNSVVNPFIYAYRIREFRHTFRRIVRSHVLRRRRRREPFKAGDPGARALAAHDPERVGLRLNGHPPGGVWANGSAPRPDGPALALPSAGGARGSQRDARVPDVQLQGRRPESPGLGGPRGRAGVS
Procedure: (§1) The filters were washed with three×3 ml aliquots of pH 7.2 buffer containing 50 mM HEPES, 10 mM Mg^+2, and 0.05% CHAPS. The filters were placed in polypropylene tubes and counted in a Packard gamma counter.

A2-adenosine receptors [1] = molecular target: T2, A2-adenosine receptors (Rattus norvegicus, UniProt P30543); experiment: Inhibition of binding of [3H]CGS21680 to A2-adenosine receptors in rat striatal membranes
T2 construct: rat striatal membranes; from tissue; host or cells: rat striatal membranes
T2 sequence (P30543 whole entry): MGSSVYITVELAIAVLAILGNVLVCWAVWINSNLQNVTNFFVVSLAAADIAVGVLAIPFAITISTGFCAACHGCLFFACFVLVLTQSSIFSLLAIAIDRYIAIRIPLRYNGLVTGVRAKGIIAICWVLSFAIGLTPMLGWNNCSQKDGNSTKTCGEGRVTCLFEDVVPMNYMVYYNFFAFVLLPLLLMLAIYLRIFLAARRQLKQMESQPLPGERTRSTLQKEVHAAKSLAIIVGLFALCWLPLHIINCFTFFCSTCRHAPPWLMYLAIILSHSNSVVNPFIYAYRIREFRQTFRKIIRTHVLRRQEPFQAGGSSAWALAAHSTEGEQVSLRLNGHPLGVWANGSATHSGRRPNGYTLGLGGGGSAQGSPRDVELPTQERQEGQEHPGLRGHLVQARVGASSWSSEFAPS
Procedure: (§2) Stock solutions of representative compounds of the present invention in the millimolar concentration range in dimethylsulfoxide were prepared for the binding assays. […] Protein was determined using the BCA (based on the complex with cuprous ions and bicinchoninic acid) protein assay reagents purchased from Pierce Chemical Co., Rockford, Ill.
The membrane suspension was then centrifuged at 37,000×g for 20 min at 4° C. The pellet was resuspended in buffer containing 2 IU/ml adenosine deaminase, Type VI from calf intestinal mucosa (Sigma, St. Louis, Mo.) to 20 mg/ml original tissue weight and incubated at 37° C. for 30 min. The membrane homogenate was recentrifuged as before, and the pellet was stored frozen at -70° C. until use.
For competitive binding assays using [^3 H]CGS21680, a volume of 1 ml was used in each 13×100 mm glass tube. […] The mixture was incubated with shaking for 90 min at 24° C. The samples were filtered on a Brandel Cell Harvester (Brandel, Gaithersburg, Md.) with Whatman GF/B filters, and washed rapidly twice with 5 ml of ice cold 50 mM Tris, pH 7.4. Each filter disc was added to 4 ml of scintillation fluid, vortexed, and counted after 6 hours.

A2-adenosine receptors [2] = experiment: Competitive binding assay in bovine brain using 125I-PAPA-APEC (striatal membranes); details: for Ki (A1)/K1 (A2): ratio of Ki at A1-receptors (rat) versus Ki in the 125I-PAPA-APEC assay (bovine)
Procedure: as §1

[3] = system: locomotor activity in NIH mice; experiment: Locomotor depression by A2 adenosine agonists in mice (Digiscan activity monitor); type: in vivo, mouse; details: for locomotor depression (% decrease in horizontal activity from vehicle control) / ED50: ip; for ED50: Mus musculus, read-out: ED50, locomotor depression; for reversal of APEC locomotor depression by antagonist: antagonist injected before APEC, 8-cyclopentyltheophylline 10 mg/kg
A2-adenosine receptors [4] = molecular target: T2, A2-adenosine receptors; experiment: Inhibition of binding of [3H]NECA to A2-adenosine receptors in rat striatal membranes
Procedure: as §2
N^6 -Cyclopentyladenosine was present at 50 nM to inhibit binding of the ligand at A1 -adenosine receptors.

[5] = rat, [3H]N6-cyclohexyladenosine (footnote c), read-out: Ki, inhibition of binding at A1-receptors using [3H]N6-cyclohexyladenosine
[6] = bovine striatum; 11, 12 and 14: apparent Ki; read-out: Ki, inhibition of binding of 125I-PAPA-APEC at A2-receptors
[7] = read-out: Ki, inhibition of binding of [3H]CGS21680 at A2-receptors
[8] = rat, [3H]PIA, read-out: Ki, inhibition of binding of [3H]PIA at A1-receptors
[9] = bovine brain A2; relative to compounds with Ki less than 10 nM
[10] = rat striatum, 11, 12 and 14: apparent Ki, read-out: Ki, inhibition of binding of [3H]CGS21680 at A2-receptors
[11] = Ki, inhibition of binding of 125I-PAPA-APEC at A2-receptors, bovine striatum; 11, 12 and 14: apparent Ki

Compound	Ki (A2 adenosine receptors; [6])	Ki (A2-adenosine receptors [1]; [7])	Ki (A1)/K1 (A2) (A2-adenosine receptors [2])	Ki (A1-adenosine receptors; [8])	further results
CCNC(=O)[C@H]1O[C@@H](n2cnc3c(N)nc(NCCc4ccc(CCC(=O)NCCNC(=O)CCCC[C@@H]5SC[C@@H]6NC(=O)N[C@@H]65)cc4)nc32)[C@H](O)[C@@H]1O [Compound 10]	14.3 ± 3.3 nM	55 ± 30 nM	> 350	–	Ki (A1-adenosine receptors; [5]): > 5000 nM
CCNC(=O)[C@H]1O[C@@H](n2cnc3c(N)nc(NCCc4ccc(CCC(=O)NCCNC(=O)CBr)cc4)nc32)[C@H](O)[C@@H]1O [Compound 14]	15.8 ± 4.8 nM	69.7 nM	125	1980 ± 102 nM	–
CCNC(=O)[C@H]1O[C@@H](n2cnc3c(N)nc(NCCc4ccc(CCC(=O)NCCNC(=O)Cc5cccs5)cc4)nc32)[C@H](O)[C@@H]1O [Compound 5]	21.3 ± 7.9 nM	15 ± 1 nM	66	–	locomotor depression (% decrease in horizontal activity from vehicle control) ([3]; mouse, in vivo): 49±9%; Ki (A1-adenosine receptors; [5]): 1400 ± 100 nM
CCNC(=O)[C@H]1O[C@@H](n2cnc3c(N)nc(NCCc4ccc(CCC(=O)NCCNC(=O)Cc5ccc(NC(=O)OCc6ccccc6)cc5)cc4)nc32)[C@H](O)[C@@H]1O [Compound 7]	< 10 nM and 6.2 nM	37 ± 5 nM	45	278 ± 18.7 nM	Ki (A2-adenosine receptors [4]): 5.59 ± 0.99 nM
CCNC(=O)[C@H]1O[C@@H](n2cnc3c(N)nc(NCCc4ccc(CCC(=O)OC)cc4)nc32)[C@H](O)[C@@H]1O [Compound 2]	< 10 nM and 6.1 nM	5 ± 2 nM	370	–	Ki (A1-adenosine receptors; [5]): 2260 ± 440 nM; Ki (A2-adenosine receptors [4]): 17.5 ± 1.6 nM
CCNC(=O)[C@H]1O[C@@H](n2cnc3c(N)nc(NCCc4ccc(CCC(=O)NCCN)cc4)nc32)[C@H](O)[C@@H]1O [Compound 3]	< 10 nM and 6.1 nM	12 ± 3 nM	16	235 ± 54 nM	ED50 [3]: 0.016 mg/kg; locomotor depression ([3]; mice, i.p., horizontal activity and total distance traveled): potent locomotor depressant in mice in a dose-dependent manner; Ki (A2-adenosine receptors [4]; read-out: Ki, inhibition of binding of [3H]NECA at A2-receptors, rat striatum, 11, 12 and 14: apparent Ki): 5.73 ± 0.52 nM
CCNC(=O)[C@H]1O[C@@H](n2cnc3c(N)nc(NCCc4ccc(CCC(=O)NCCNC(=O)c5cccc(NC(=O)OCc6ccccc6)c5)cc4)nc32)[C@H](O)[C@@H]1O [Compound 9]	< 10 nM and 8.7 nM	12 ± 2 nM	78	–	Ki (A1-adenosine receptors; [5]): 680 ± 110 nM
CCNC(=O)[C@H]1O[C@@H](n2cnc3c(N)nc(NCCc4ccc(CCC(=O)NCCNC(=S)NC5CC(C)(C)N([O])C(C)(C)C5)cc4)nc32)[C@H](O)[C@@H]1O [Compound 15]	–	–	–	–	Ki (A1-adenosine receptors; read-out: Ki, inhibition of binding at A1-receptors using [3H]N6-cyclohexyladenosine, rat, [3H]N6-cyclohexyladenosine (footnote c)): 177 ± 38 nM; Ki (A2 adenosine receptors; read-out: Ki, inhibition of binding of 125I-PAPA-APEC at A2-receptors; bovine striatum; 11, 12 and 14: apparent Ki): 14.8 ± 3.6 nM; Ki (A2-adenosine receptors [1]; read-out: Ki, inhibition of binding of [3H]CGS21680 at A2-receptors, rat striatum, 11, 12 and 14: apparent Ki): 27 ± 3 nM
CCCn1c(=O)c2[nH]c(C3CCCC3)nc2n(CCC)c1=S [8-cyclopentyl-1,3-dipropyl-2-thioxanthine]	–	–	–	–	reversal of APEC locomotor depression by antagonist ([3]; mice): not
CCNC(=O)[C@H]1O[C@@H](n2cnc3c(N)nc(NCCc4ccc(CCC(=O)NCCNc5ccc([N+](=O)[O-])c6nonc56)cc4)nc32)[C@H](O)[C@@H]1O [Compound 17]	31.6 ± 1.3 nM	–	–	–	affinity at A2-adenosine receptors (A2-adenosine receptors [2]; fluorescent probes, derivatives in general): high affinity
NCCNC(=O)Cc1ccc(NC(=O)Cc2ccc(Nc3ncnc4c3ncn4[C@@H]3O[C@H](CO)[C@@H](O)[C@H]3O)cc2)cc1 [ADAC, reference compound]	–	–	–	–	Ki (A2-adenosine receptors [1]): 218 ± 28 nM; Ki (A2-adenosine receptors [4]): 210 nM
CCNC(=O)[C@H]1O[C@@H](n2cnc3c(N)nc(NCCc4ccc(CCC(=O)NCCNC(=O)c5cccc(N)c5)cc4)nc32)[C@H](O)[C@@H]1O [Compound 8]	43.6 ± 5.2 nM	–	31	1340 ± 28 nM	potency in displacing 125I-PAPA-APEC binding (A2 adenosine receptors; [9]): less potent; Ki (A2-adenosine receptors [1]; [10]): 16.5 ± 2.8 nM
CCNC(=O)[C@H]1O[C@@H](n2cnc3c(N)nc(NCCc4ccc(CCC(=O)NCCNC(=O)CCc5ccc(O)cc5)cc4)nc32)[C@H](O)[C@@H]1O [Compound 4]	13.2 ± 1.5 nM	13 ± 4 nM	72	–	locomotor depression (% decrease in horizontal activity from vehicle control) ([3]; mouse, in vivo): 44±7%; Ki (A1-adenosine receptors; [5]): 950 ± 100 nM
Cn1c(=O)c2[nH]c(C3CCCC3)nc2n(C)c1=O [8-cyclopentyltheophylline]	–	–	–	–	reversal of APEC locomotor depression by antagonist ([3]; mice): not
CCNC(=O)[C@H]1O[C@@H](n2cnc3c(N)nc(NCCc4ccc(CCC(=O)NCCNC(=S)Nc5ccc(S(=O)(=O)O)cc5)cc4)nc32)[C@H](O)[C@@H]1O [Compound 13, 2-[4-[2-[2-[4-(Sulfophenylthioureidyl)]-ethylaminocarbonyl]ethyl]phenyl]ethylamino]-5'-N-ethylcarboxamidoadenosine sodium salt]	10.9 ± 2.3 nM	–	347	3780 ± 800 nM	locomotor depression (% decrease in horizontal activity from vehicle control) ([3]; mouse, in vivo): 41±5%; Ki (A2-adenosine receptors [1]; [10]): 26 ± 10 nM; selectivity for A2 receptors (A2-adenosine receptors [2]; A2 versus A1): more than 200 fold
CCNC(=O)[C@H]1O[C@@H](n2cnc3c(N)nc(NCCc4ccc(CCC(=O)NCCCCNC(=O)c5ccc(CF)cc5)cc4)nc32)[C@H](O)[C@@H]1O [Compound 16]	25.4 ± 7.6 nM	18.9 ± 4.9 nM	57	1450 ± 67 nM	locomotor depression (% decrease in horizontal activity from vehicle control) ([3]; […]): 50±4%; potency in displacing 125I-PAPA-APEC binding (A2 adenosine receptors; [9]): less potent
CCNC(=O)[C@H]1O[C@@H](n2cnc3c(N)nc(NCCc4ccc(CCC(=O)NCCNC(=S)Nc5ccc(N=C=S)cc5)cc4)nc32)[C@H](O)[C@@H]1O [Compound 12]	–	–	39	–	Ki (A1-adenosine receptors): 276 ± 75 nM; Ki (A2 adenosine receptors; [11]): < 10 nM and 7.1 nM; Ki (A2-adenosine receptors [1]): 35 ± 10 nM
OC[C@H]1O[C@@H](n2cnc3c(NC4CCCCC4)ncnc32)[C@H](O)[C@@H]1O [CHA, N^6 -cyclohexyladenosine]	–	–	–	–	ED50 ([3]; mice, i.p., from dose response curves): 0.06 mg/kg; reversal of agonist-elicited locomotor depression by A1-selective antagonists ([3]; mice, agonist with A1-selective antagonists): reversed by A1 -selective antagonists
CCNC(=O)[C@H]1O[C@@H](n2cnc3c(N)nc(NCCc4ccc(CCC(=O)NCCNC(=S)Nc5cccc(N=C=S)c5)cc4)nc32)[C@H](O)[C@@H]1O [Compound 11]	–	–	11	–	Ki (A1-adenosine receptors): 69.7 ± 7.9 nM; Ki (A2 adenosine receptors; [11]): < 10 nM and 6.2 nM; Ki (A2-adenosine receptors [1]): 22 ± 7 nM; Ki (A2-adenosine receptors [4]): 2.82 ± 0.38 nM
Cn1c(=O)c2[nH]cnc2n(C)c1=O [theophylline]	–	–	–	–	total distance traveled restored, % of control ([3]; antagonist 10 mg/kg, at the ED50 dose of APEC, mice): 95±12 % of control; reversal of APEC locomotor depression by antagonist ([3]; mice): reversible by theophylline
